Measurements as given in ChEMBL document CHEMBL6083232, “A review on synthetic inhibitors of dual-specific tyrosine phosphorylation-regulated kinase 1A (DYRK1A) for the treatment of Alzheimer's disease (AD)” (Bioorg Med Chem, 2024).

biological target: T1, Dual specificity tyrosine-phosphorylation-regulated kinase 1A (Homo sapiens, UniProt Q13627); assay: Inhibition of human DYRK1A in presence of ATP by Kinomescan method

Row | SMILES | IC50 [nM]
1 | NCC(Nc1nccc(-c2n[nH]c3nc(NC4CCC(N)CC4)ncc23)n1)c1cccc(Cl)c1 (stereo not given) | 4.6
2 | NC1CCC(Nc2ncc3c(-c4ccnc(NCc5ccsc5)n4)n[nH]c3n2)CC1 (stereo not given) | 14
3 | CCn1c2cc(OC)ccc2c2ccnc(C)c21 | 9000
4 | COC(=N)c1nc2ccc3ncnc(Nc4ccc(F)cc4Br)c3c2s1 | 3
5 | NC1CCC(Nc2ncc3c(-c4ccnc(NCc5ccccc5)n4)n[nH]c3n2)CC1 (stereo not given) | 6
6 | COc1cc2[nH]c(=O)c(C(=O)Nc3cc(C(=O)NCc4cccc(Cl)c4)ccc3C)cc2cc1OCCN1CCOCC1 | 16

biological target: Dual specificity protein kinase CLK1 (Homo sapiens, UniProt P49759); assay: Inhibition of CLK1 (unknown origin)
Sequence (P49759 whole entry): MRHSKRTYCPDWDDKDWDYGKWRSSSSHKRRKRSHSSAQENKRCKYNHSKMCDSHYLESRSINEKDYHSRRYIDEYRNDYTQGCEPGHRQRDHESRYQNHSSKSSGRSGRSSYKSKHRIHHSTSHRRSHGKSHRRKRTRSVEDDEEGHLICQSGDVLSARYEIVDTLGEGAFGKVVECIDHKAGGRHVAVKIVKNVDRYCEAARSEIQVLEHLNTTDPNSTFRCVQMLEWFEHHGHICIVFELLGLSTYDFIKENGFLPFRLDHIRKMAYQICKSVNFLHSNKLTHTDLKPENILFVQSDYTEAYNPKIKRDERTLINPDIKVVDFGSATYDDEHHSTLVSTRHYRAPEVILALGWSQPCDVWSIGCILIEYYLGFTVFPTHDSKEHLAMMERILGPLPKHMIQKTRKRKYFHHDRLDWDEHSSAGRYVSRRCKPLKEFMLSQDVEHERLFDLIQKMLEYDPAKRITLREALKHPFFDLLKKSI

Row | SMILES | IC50 [nM]
7 | COc1ccc2cc3c4c(cc(OC)c(OC)c4c2c1)C(=O)N3 [ARISTOLACTAM BIII] | 50.3

biological target: T1, Dual specificity tyrosine-phosphorylation-regulated kinase 1A; assay: Inhibition of human recombinant 6xHis-tagged DYRK1A catalytic domain (1 to 502 residues) extracted from Escherichia coli BL21 (DE3) cells incubated for 30 mins by Bradford's reagent based analysis

Row | SMILES | IC50 [nM]
8 | COc1ccc(-c2c[nH]c3ncc(-c4ccc(OC)c(OC)c4)cc23)cc1 | 460
9 | COc1ccc(-c2c[nH]c3ncc(-c4ccc(OCc5ccccc5)c(OCc5ccccc5)c4)cc23)cc1OC | 18500
10 | COc1ccc(-c2cnc3[nH]cc(-c4ccc(F)cc4)c3c2)cc1OC | 1430
11 | Oc1ccc(-c2cnc3[nH]cc(-c4ccc(O)c(O)c4)c3c2)cc1O | 12
12 | COc1ccc(-c2cnc3[nH]cc(-c4ccc(OC)c(OC)c4)c3c2)cc1OC | 57800
13 | COc1ccc(-c2c[nH]c3ncc(-c4ccc(O)c(O)c4)cc23)cc1OC | 470
14 | COc1ccc(-c2cnc3[nH]cc(-c4ccc(F)c(F)c4)c3c2)cc1OC | 5260
15 | Oc1ccc(-c2cnc3[nH]cc(-c4ccc(F)c(F)c4)c3c2)cc1O | 56600

biological target: Dual specificity tyrosine-phosphorylation-regulated kinase 1B (Homo sapiens, UniProt Q9Y463); assay: Inhibition of DYRK1B (unknown origin) by DiscoverX KINOMEscan assay
Sequence (Q9Y463 whole entry): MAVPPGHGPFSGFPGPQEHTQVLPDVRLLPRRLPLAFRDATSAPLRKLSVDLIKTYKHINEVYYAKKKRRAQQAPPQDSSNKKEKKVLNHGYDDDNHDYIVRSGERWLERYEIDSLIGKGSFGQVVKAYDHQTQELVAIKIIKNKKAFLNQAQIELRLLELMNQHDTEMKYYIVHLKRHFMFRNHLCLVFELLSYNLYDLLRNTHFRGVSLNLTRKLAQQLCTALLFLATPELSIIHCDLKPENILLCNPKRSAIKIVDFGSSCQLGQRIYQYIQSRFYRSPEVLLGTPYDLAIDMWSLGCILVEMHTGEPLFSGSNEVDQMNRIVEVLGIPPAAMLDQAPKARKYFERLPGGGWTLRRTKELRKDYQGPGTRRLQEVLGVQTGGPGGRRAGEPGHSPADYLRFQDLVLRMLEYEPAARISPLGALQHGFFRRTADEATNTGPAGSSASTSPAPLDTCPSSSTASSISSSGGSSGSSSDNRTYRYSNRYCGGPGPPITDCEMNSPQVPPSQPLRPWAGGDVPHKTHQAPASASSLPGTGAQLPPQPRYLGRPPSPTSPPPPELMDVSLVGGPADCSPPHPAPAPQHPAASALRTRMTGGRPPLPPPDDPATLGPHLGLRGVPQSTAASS

Row | SMILES | IC50 [nM]
16 | O=C(Nc1ccc(C(=O)NCc2ccccc2)cc1)Nc1nc2ccc(O)cc2s1 | 56.6

biological target: T1, Dual specificity tyrosine-phosphorylation-regulated kinase 1A; assay: Inhibition of DYRK1A (unknown origin) extracted from Escherichia coli BL21 (DE3) cells measured for 60 mins by FRET assay

Row | SMILES | IC50 [nM]
17 | CN(Cc1ccco1)c1ncnc2ccc(-c3ccc4c(c3)OCO4)cc12 | 150
18 | O=C1NC(Nc2ccc(O)cc2)=N/C1=C\c1ccc2c(c1)OCO2 | 84
19 | Oc1ccc(-c2cnc3cnc(-c4ccc(O)cc4)nc3c2)cc1 | 900
20 | CCCC#Cc1ccnc2[nH]cc(-c3ccnc(N)n3)c12 | 20

tested on: not listed separately; assay: Half life in human; format: ADME

Row | SMILES | half-life [h]
21 | CN1CCN(C(=O)c2ccc(NC(=O)Nc3nc4ccc(O)cc4s3)cc2)CC1 | > 1

biological target: T1, Dual specificity tyrosine-phosphorylation-regulated kinase 1A; assay: Inhibition of DYRK1A (unknown origin)

Row | SMILES | IC50 [nM]
22 | CN1CCN(c2ccc(-c3ncnc4ccc(-c5ccnc(N)c5)cc34)cc2F)CC1 | < 100
23 | COc1nc(NC2CCN(C(C)=O)CC2F)nn2ccc(-c3ccc4nnn(CC(F)F)c4c3)c12 (stereo not given) | 1
24 | CC(C)Nc1cncc(-c2ccc3cnc(NC(=O)C4CCN(C)CC4)cc3c2)n1 | 1
25 | O=C(NC1=Cc2ccc(O)cc2C1)Nc1ccc(NC(=O)c2ccc(O)cc2)cc1 | 7.8
26 | Cn1cc(C(=O)Nc2ncc(-c3ccc(C#N)cc3)s2)ccc1=O | < 10
27 | COCCn1nc2c(c1C#N)-c1cnc3[nH]cc(c3c1)-c1cn(nc1C(F)(F)F)CCCC(=O)N(C)C2 | < 50
28 | CC(C)N1CCC(n2cc(C(=O)Nc3cc4cc(-c5cnn(C)c5)ccc4cn3)cn2)CC1 | 1
29 | Cc1nc2ccc(-c3ccnc(N)c3)nc2n1-c1ccc(N2CCN(CCOCCOCCC(=O)N3CCN(Cc4ccc(CNc5cccc6c5C(=O)N(C5CCC(=O)NC5=O)C6)cc4)CC3)CC2)c(F)c1 (stereo not given) | < 10000
30 | O=c1[nH]c2ccc(-c3cncc(NCc4ccccc4)n3)cc2[nH]1 | 1
31 | COCC(CC(C)C)NC1=N/C(=C\c2ccc3ncsc3c2)C(=O)N1C (stereo not given) | < 5

biological target: Cyclin-dependent kinase 1 (Homo sapiens, UniProt P06493); assay: Inhibition of CDK1 (unknown origin)
Sequence (P06493 whole entry): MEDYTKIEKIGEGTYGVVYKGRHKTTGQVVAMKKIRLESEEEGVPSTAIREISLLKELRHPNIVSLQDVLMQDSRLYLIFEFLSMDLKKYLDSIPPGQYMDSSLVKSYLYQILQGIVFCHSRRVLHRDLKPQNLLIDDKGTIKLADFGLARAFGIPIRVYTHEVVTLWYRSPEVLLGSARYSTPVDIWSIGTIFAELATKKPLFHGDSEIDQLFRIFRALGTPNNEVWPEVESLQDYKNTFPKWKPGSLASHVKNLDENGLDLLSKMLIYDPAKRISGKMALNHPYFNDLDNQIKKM

Row | SMILES | IC50 [nM]
32 | COc1ccc2cc3c4c(cc(OC)c(OC)c4c2c1)C(=O)N3 [ARISTOLACTAM BIII] | 405

biological target: T2, Dual specificity tyrosine-phosphorylation-regulated kinase 4 (Homo sapiens, UniProt Q9NR20); assay: Inhibition of DYRK4 (unknown origin)
T2 sequence (Q9NR20 whole entry): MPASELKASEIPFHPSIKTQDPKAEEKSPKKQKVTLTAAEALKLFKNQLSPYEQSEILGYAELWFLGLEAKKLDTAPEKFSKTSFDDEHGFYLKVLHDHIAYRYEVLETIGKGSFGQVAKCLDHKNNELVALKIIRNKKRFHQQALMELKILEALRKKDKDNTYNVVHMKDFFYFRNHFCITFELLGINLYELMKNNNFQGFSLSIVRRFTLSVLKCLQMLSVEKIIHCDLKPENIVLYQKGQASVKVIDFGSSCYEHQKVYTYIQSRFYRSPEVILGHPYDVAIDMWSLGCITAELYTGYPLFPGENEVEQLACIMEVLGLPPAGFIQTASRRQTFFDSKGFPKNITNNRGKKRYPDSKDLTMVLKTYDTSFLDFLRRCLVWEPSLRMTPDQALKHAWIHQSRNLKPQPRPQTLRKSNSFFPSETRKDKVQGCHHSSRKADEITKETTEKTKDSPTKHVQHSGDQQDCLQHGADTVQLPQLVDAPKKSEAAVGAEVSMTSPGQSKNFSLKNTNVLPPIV

Row | SMILES | IC50 [nM]
33 | COc1ccc2cc3c4c(cc(OC)c(OC)c4c2c1)C(=O)N3 [ARISTOLACTAM BIII] | 1180

biological target: T1, Dual specificity tyrosine-phosphorylation-regulated kinase 1A; assay: Inhibition of DYRK1A (unknown origin) by FRET assay

Row | SMILES | IC50 [nM]
34 | Cc1c(O)cccc1-c1ccc2nc(NC(=O)C3CC3F)sc2c1 (stereo not given) | 6
35 | Cc1nc2ccc(-c3cc(N)nc(N)c3)nc2n1-c1ccccc1 | 2
36 | CCN1/C(=C/C(C)=O)Sc2cc3oc4ccccc4c3cc21 | 20
37 | Cc1nc(Nc2ccccc2)c2c(-c3cc(N)nc(N)c3)c[nH]c2n1 | 2
38 | COc1ccc2c(c1)[nH]c1c3c(OC)cncc3cc(C#N)c21 | 180
39 | Cc1ccc(NC(=O)c2n[nH]c3ccc(-c4cncc(CN5CCCCC5)c4)cc23)cn1 | 1
40 | CC(=O)Nc1nc2cc(O)ccc2s1 | 400
